Results from patent US6583299B1, “α-amino-β-sulfonyl hydroxamic acid compounds” (priority 1999, dated 2003).
Several values for one entry are separate records, joined by “and”; a condition that tells them apart may be missing. Identical values can stand only once. Like-named read-outs stand apart in the source and are kept apart here.

How the values were obtained:
Assay in all cases: In vitro metalloprotease inhibition, fluorogenic MCA peptide substrate
Format in all cases: biochemical
MMP-1 = target: T1, MMP-1 (Homo sapiens, UniProt P03956); conditions: recombinant human enzyme, APMA-activated, room temperature, pH 7.5
T1 construct: host or cells: transfected HT-1080 cells
T1 sequence (P03956 100-469): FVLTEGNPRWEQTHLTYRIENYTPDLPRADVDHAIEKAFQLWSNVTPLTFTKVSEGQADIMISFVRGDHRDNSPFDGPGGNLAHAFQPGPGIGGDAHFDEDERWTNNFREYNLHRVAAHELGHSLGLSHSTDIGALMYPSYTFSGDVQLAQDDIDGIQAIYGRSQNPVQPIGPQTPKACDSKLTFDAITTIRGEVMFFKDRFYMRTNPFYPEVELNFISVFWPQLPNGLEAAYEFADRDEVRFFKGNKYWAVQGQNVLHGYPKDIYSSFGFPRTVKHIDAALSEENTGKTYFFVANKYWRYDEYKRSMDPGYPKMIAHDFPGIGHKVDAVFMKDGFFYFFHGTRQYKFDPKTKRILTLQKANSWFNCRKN
Method: (§1) Briefly, 4-aminophenylmercuric acetate (APMA) or trypsin-activated MMPs were incubated with various concentrations of the inhibitor compound at room temperature for 5 minutes.
(§2) The expressed enzyme was purified first over a heparin agarose column and then over a chelating zinc chloride column. The proenzyme was activated by APMA for use in the assay.
MMP-1 expressed in transfected HT-1080 cells was provided by Dr. Harold Welgus of Washington University, St. Louis, Mo. The enzyme was also activated using APMA and was then purified over a hydroxamic acid column.
(§3) The enzyme substrate is a methoxycoumarin-containing polypeptide having the following sequence:
(§4) MCA-ProLeuGlyLeuDpaAlaArgNH2, wherein MCA is methoxycoumarin and Dpa is 3-(2,4-dinitrophenyl)-L-2,3-diaminopropionyl alanine.
(§5) The assayed inhibitor compound in DMSO/buffer solution was compared to an equal amount of DMSO/buffer with no inhibitor as control using Microfluor™ White Plates (Dynatech). The inhibitor or control solution was maintained in the plate for 10 minutes and the substrate was added to provide a final concentration of 4 μM.
(§6) Inhibition was measured as a reduction in fluorescent intensity as a function of inhibitor concentration, using a Perkin Elmer L550 plate reader. The IC50 values were calculated from those values.

MMP-13 = target: T2, MMP-13 (Homo sapiens, UniProt P45452); conditions: APMA-activated, room temperature, pH 7.5
T2 construct: made in house; host or cells: baculovirus / insect cells
Method: as §1, §2, §3, §4, §5, §6

MMP-2 = target: T3, MMP-2 (Homo sapiens, UniProt P08253); conditions: room temperature, pH 7.5
T3 sequence (P08253 110-660): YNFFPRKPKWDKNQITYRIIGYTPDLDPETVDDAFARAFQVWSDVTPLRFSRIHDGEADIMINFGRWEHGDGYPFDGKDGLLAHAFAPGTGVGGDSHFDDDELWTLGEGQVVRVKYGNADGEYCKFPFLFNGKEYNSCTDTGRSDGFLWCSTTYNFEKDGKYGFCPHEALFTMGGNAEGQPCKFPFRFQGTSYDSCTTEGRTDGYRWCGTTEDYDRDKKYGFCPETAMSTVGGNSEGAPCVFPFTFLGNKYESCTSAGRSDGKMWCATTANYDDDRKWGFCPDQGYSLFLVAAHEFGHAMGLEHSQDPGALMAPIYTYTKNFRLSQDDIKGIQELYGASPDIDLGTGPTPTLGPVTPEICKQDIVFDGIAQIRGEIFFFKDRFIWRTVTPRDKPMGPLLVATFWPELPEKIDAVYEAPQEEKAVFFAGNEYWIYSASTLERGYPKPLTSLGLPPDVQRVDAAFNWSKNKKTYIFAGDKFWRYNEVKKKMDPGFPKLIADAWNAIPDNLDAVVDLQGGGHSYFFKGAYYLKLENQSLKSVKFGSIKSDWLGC
Method: Briefly, 4-aminophenylmercuric acetate (APMA) or trypsin-activated MMPs were incubated with various concentrations of the inhibitor compound at room temperature for 5 minutes. […] The assayed inhibitor compound in DMSO/buffer solution was compared to an equal amount of DMSO/buffer with no inhibitor as control using MicrofluorTM White Plates (Dynatech). The inhibitor or control solution was maintained in the plate for 10 minutes and the substrate was added to provide a final concentration of 4 μM. […] Inhibition was measured as a reduction in fluorescent intensity as a function of inhibitor concentration, using a Perkin Elmer [MUT] plate reader. The IC50 values were calculated from those values.

[1] = recombinant human enzyme, read-out: MMP-13 IC50
[2] = MMP-13 IC50, recombinant human enzyme

Row | SMILES | IC50 (MMP-1) | IC50 (MMP-13; [1]) | IC50 (MMP-2) | IC50 (MMP-13; [2])
1 | CC(N)(CS(=O)(=O)c1ccc(Sc2ccccc2)cc1)C(=O)NO (stereo not shown) [Example 58] | 4400 nM | 2.4 nM |  | 
2 | CC(C)(C)C(=O)NC(CS(=O)(=O)c1ccc(Oc2ccccc2)cc1)C(=O)NO (stereo not shown) [Example 10d] | 1600 nM | 2.7 nM |  | 
3 | CN(C(=O)OC(C)(C)C)C(C)(CS(=O)(=O)c1ccc(NC(=O)c2ccccc2)cc1)C(=O)NO (stereo not shown) [Example 63] | 3050 nM | 21.5 nM | 1 nM | 
4 | CC(=O)N(C)[C@@H](CS(=O)(=O)c1ccc(Oc2ccccc2)cc1)C(=O)NO [Example 43] | 90 nM | 0.2 nM | 0.2 nM | 
5 | CC(=O)NC(CS(=O)(=O)c1ccc(Sc2ccccc2)cc1)C(=O)NO (stereo not shown) [Example 15b, 2-(Acetylamino)-N-hydroxy-3-[[4-(phenylthio)phenyl]sulfonyl]propanamide] | > 10000 nM | 5.9 nM | 2.2 nM | 
6 | CCNC(C)(CS(=O)(=O)c1ccc(Oc2ccccc2)cc1)C(=O)NO (stereo not shown) [Example 55] | 1600 nM | 1.6 nM |  | 
7 | COc1ccc(S(=O)(=O)CC(NC(C)=O)C(=O)NO)cc1 (stereo not shown) [Example 1, N-Hydroxy-3-[(4-methoxyphenyl)sulfonyl]-2-[(methylcarbonyl)amino]propanamide] | 300 nM | 15 nM |  | 
8 | Cc1ccc(S(=O)(=O)NC(CS(=O)(=O)c2ccc(Oc3ccccc3)cc2)C(=O)NO)cc1 (stereo not shown) [Example 12c] | 400 nM | 0.6 nM | < 0.1 nM | 
9 | CC(CS(=O)(=O)c1ccc(Oc2ccccc2)cc1)(NCc1ccc2c(c1)OCO2)C(=O)NO (stereo not shown) [Example 66] |  | 1.1 nM |  | 
10 | CN[C@@H](CS(=O)(=O)c1ccc(Oc2ccccc2)cc1)C(=O)NO [Example 41] | 440 nM and 670 nM | 0.4 nM and 1 nM | 0.3 nM and 0.5 nM | 
11 | O=C(NC(CS(=O)(=O)c1ccc(Sc2ccccc2)cc1)C(=O)NO)c1ccccc1 (stereo not shown) [Example 34] | > 10000 nM | 5 nM |  | 
12 | O=C(NC(CS(=O)(=O)c1ccc(Sc2ccccc2)cc1)C(=O)NO)c1ccncc1 (stereo not shown) [Example 28] | > 10000 nM | 13 nM | 5.5 nM | 
13 | CN(C(=O)OC(C)(C)C)[C@H](CS(=O)(=O)c1ccc(Oc2ccccc2)cc1)C(=O)NO [Example 40] | 1600 nM | 0.3 nM | 0.3 nM | 
14 | CC(C)(C)NC(=O)NC(CS(=O)(=O)c1ccc(Sc2ccccc2)cc1)C(=O)NO (stereo not shown) [Example 45] |  | 5 nM |  | 
15 | CC(C)(C)NC(=O)NC(CS(=O)(=O)c1ccc(Sc2ccccc2)cc1)C(=O)NO (stereo not shown) [Example 20b] | > 10000 nM | 4 nM |  | 
16 | CC(=O)N[C@@H](CS(=O)(=O)c1ccc(Sc2ccccc2)cc1)C(=O)NO [Example 30] |  | 2.9 nM | 0.5 nM | 
17 | O=C(NC(CS(=O)(=O)c1ccc(Sc2ccccc2)cc1)C(=O)NO)c1ccccc1-c1ccccc1 (stereo not shown) [Example 35] | 3000 nM | 0.2 nM |  | 
18 | Cc1ccc(S(=O)(=O)NC(CS(=O)(=O)c2ccc(Sc3ccccc3)cc2)C(=O)NO)cc1 (stereo not shown) [Example 17c] | 600 nM | 0.4 nM |  | 
19 | CN(C)C(C)(CS(=O)(=O)c1ccc(Oc2ccccc2)cc1)C(=O)NO (stereo not shown) [Example 52] |  | 24 nM |  | 
20 | CC(=O)N[C@@H](CS(=O)(=O)c1ccc(Oc2ccccc2)cc1)C(=O)NO [Example 9g, N^2-Acetyl-N^1-hydroxyl-3-[(4-phenoxyphenyl)sulphonyl]alaninamide] | 770 nM | 1.1 nM |  | 
21 | O=C(N[C@@H](CS(=O)(=O)c1ccc(Sc2ccccc2)cc1)C(=O)NO)OCc1ccccc1 [Example 32] | 8000 nM | 0.4 nM |  | 

Row | SMILES | IC50 (MMP-1) | IC50 (MMP-13; [1]) | IC50 (MMP-2) | IC50 (MMP-13; [2])
22 | CC(CS(=O)(=O)c1ccc(Oc2ccccc2)cc1)(NCCc1ccccc1)C(=O)NO (stereo not shown) [Example 67] | 2400 nM | 2.4 nM |  | 
23 | O=C(NC(CS(=O)(=O)c1ccc(Sc2ccccc2)cc1)C(=O)NO)c1cccc2ccccc12 (stereo not shown) [Example 36] | > 10000 nM | 2.5 nM |  | 
24 | CC(CS(=O)(=O)c1ccc(Oc2ccccc2)cc1)(NCc1ccc2ccccc2c1)C(=O)NO (stereo not shown) [Example 68] |  | 1.4 nM |  | 
25 | O=C(NC(CS(=O)(=O)c1ccc(Sc2ccccc2)cc1)C(=O)NO)c1ccco1 (stereo not shown) [Example 27] | > 10000 nM | 14 nM |  | 
26 | NC(CS(=O)(=O)c1ccc(Sc2ccccc2)cc1)C(=O)NO (stereo not shown) [Example 18a] | > 10000 nM | 24 nM |  | 
27 | CC(N)(CS(=O)(=O)c1ccc(Oc2ccccc2)cc1)C(=O)NO (stereo not shown) [Example 38] | 170 nM |  |  | 0.5 nM
28 | CCCCC(=O)NC(CS(=O)(=O)c1ccc(Sc2ccccc2)cc1)C(=O)NO (stereo not shown) [Example 11g, N-[1-[(Hydroxyamino)carbonyl]-2-[[4-(phenylthio)phenyl]sulfonyl]ethyl]pentanamide] |  | 6 nM |  | 
29 | O=C(NC(CS(=O)(=O)c1ccc(Oc2ccccc2)cc1)(C(=O)NO)c1ccccc1)c1ccccc1 (stereo not shown) [Example 65] |  | 161 nM |  | 
30 | O=C(NC(CS(=O)(=O)c1ccc(Sc2ccccc2)cc1)C(=O)NO)OCc1ccccc1 (stereo not shown) [Example 14c, Phenylmethyl-[2-(hydroxyamino)-2-oxo-1-[[[4-(phenylthio)-phenyl]sulfonyl]methyl]ethyl]carbamate] | > 10000 nM | 3.7 nM |  | 
31 | O=C(NC(CS(=O)(=O)c1ccc(Sc2ccccc2)cc1)C(=O)NO)c1cccnc1 (stereo not shown) [Example 29] | > 10000 nM | 7 nM |  | 
32 | CC(N)(CS(=O)(=O)c1ccc(Oc2ccccc2)cc1)C(=O)NO (stereo not shown) [Example 39] | 114 nM and 225 nM |  |  | 0.3 nM and 1.1 nM
33 | COc1ccc(S(=O)(=O)CC(NS(C)(=O)=O)C(=O)NO)cc1 (stereo not shown) [Example 21] | 300 nM | 15 nM |  | 
34 | CC(=O)NC(C)(CS(=O)(=O)c1ccc(Sc2ccccc2)cc1)C(=O)NO (stereo not shown) [Example 57] |  | 580 nM |  | 
35 | C[C@H](NC(=O)OCc1ccccc1)C(=O)NC(CS(=O)(=O)c1ccc(Sc2ccccc2)cc1)C(=O)NO (stereo partly shown) [Example 19a] | > 10000 nM | 0.8 nM |  | 
36 | CC(CS(=O)(=O)c1ccc(Oc2ccccc2)cc1)(NC(=O)CN1CCCC1)C(=O)NO (stereo not shown) [Example 49] |  | 160 nM |  | 
37 | O=C(CNC(=O)OCc1ccccc1)NC(CS(=O)(=O)c1ccc(Sc2ccccc2)cc1)C(=O)NO (stereo not shown) [Example 16c, Phenylmethyl-[2-[[2-(hydroxyamino)-2-oxo-1-[[[4-(phenylthio)-phenyl]sulfonyl]methyl]ethyl]amino]-2-oxoethyl]carbamate] | > 10000 nM | 0.8 nM |  | 
38 | COc1ccc(S(=O)(=O)CC(NC(=O)CNC(=O)OCc2ccccc2)C(=O)NO)cc1 (stereo not shown) [Example 6, Phenylmethyl-[2-[[2-(hydroxyamino)-2-oxo-1-[[[4-methoxyphenyl]sulfonyl]methyl]ethyl]amino]-2-oxoethyl]carbamate] | 40 nM | < 1 nM |  | 
39 | C#CCNC(C)(CS(=O)(=O)c1ccc(Oc2ccccc2)cc1)C(=O)NO (stereo not shown) [Example 69] | 700 nM | 0.6 nM |  | 
40 | CC(CS(=O)(=O)c1ccc(Oc2ccccc2)cc1)(NCc1ccccc1)C(=O)NO (stereo not shown) [Example 56] |  | 0.3 nM |  | 
41 | COc1ccc(S(=O)(=O)CC(NC(=O)NC(C)(C)C)C(=O)NO)cc1 (stereo not shown) [Example 2, 2-[[[(1,1-Dimethylethyl)amino]carbonyl]amino]-N-hydroxy-3-[(4-methoxyphenyl)sulfonyl]propanamide] | 1500 nM | 15 nM |  | 
42 | NC(CS(=O)(=O)c1ccc(Oc2ccccc2)cc1)(C(=O)NO)c1ccccc1 (stereo not shown) [Example 70] | 130 nM | 0.4 nM |  | 
